The text below walks through data of patent publication US8883782B2, “Spiro-tetracyclic ring compounds as beta-secretase modulators and methods of use” (Amgen Inc., priority 2010, dated 2014).

pIC50: −log10 of the molar value. Where two headings read alike, the source gives them in different places.

For assay [1], the system named is Aβ40 in conditioned medium of cells stably expressing Amyloid Precursor Protein (APP). Put plainly: In vitro BACE cell-based assay (Aβ40 in conditioned medium, sandwich ELISA). To be noted: Homo sapiens, read-out: HEK cell assay. In outline: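 Step two: 10-point compound titration added, starting 100 μM or 10 μM, 0.1% DMSO. Step three: medium Aβ40 measured by ELISA, capture 3 h and detection 2 h at 4° C, TRF read.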
A general note: ELISA stands for enzyme-linked immunosorbent assay.

The target of assay [2] is Beta Secretase enzyme (BACE) (Homo sapiens, UniProt P56817). Put plainly: In vitro enzymatic BACE FRET (fluorescence resonance energy transfer) assay. The format is biochemical. To be noted: average IC50, enzyme assay; read-out: BACE 1 FRET assay. In outline: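 Acetate buffer (0.05 M, pH 4.2), 10% DMSO final, 100 uM nonionic detergent genapol. Substrate addition (50 nM FRET peptide) initiates; one-hour incubation; Tris raises pH to neutrality before fluorescence measurement.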

The mark [3] stands for this setting: HEK293, average IC50, HEK cells.

Sequence of Beta Secretase enzyme (BACE) (P56817 46-501, species assumed): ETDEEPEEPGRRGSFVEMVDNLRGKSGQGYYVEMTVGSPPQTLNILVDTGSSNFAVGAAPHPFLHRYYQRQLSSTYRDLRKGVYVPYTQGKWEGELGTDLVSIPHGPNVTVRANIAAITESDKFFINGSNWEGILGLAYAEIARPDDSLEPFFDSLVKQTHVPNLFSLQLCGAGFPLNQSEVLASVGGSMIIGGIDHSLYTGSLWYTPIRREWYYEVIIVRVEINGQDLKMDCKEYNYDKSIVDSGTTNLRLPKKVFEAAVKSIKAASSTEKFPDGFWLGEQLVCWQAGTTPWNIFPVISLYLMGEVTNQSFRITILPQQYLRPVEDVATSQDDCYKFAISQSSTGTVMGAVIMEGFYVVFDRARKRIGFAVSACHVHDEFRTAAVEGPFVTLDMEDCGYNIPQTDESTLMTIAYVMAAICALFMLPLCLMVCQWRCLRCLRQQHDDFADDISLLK

On to `CC#Cc1cncc(-c2ccc3c(c2)[C@@]2(COC(N)=N2)c2cc(Cl)nc(OC)c2O3)c1` [Example 829, (5S)-3-chloro-1-methoxy-7-(5-(1-propyn-1-yl)-3-pyridinyl)spiro[chromeno[2,3-c]pyridine-5,4′-[1,3]oxazol]-2′-amine], for which the pIC50 was 5.39 in assay [1] (HEK293, average IC50) and 7.52 in assay [2].
Take `NC1=N[C@@]2(CO1)c1cc(-c3cccnc3F)ccc1Oc1cnc(-c3ccnc(O)c3)cc12` [Example 842, 4-((5S)-2′-amino-7-(2-fluoro-3-pyridinyl)spiro[chromeno[2,3-c]pyridine-5,4′-[1,3]oxazol]-3-yl)-2-pyridinol]: the pIC50 was 5.59 in assay [1] (HEK293, average IC50) and 7.59 in assay [2].
Turning to `Cc1cc(-c2ccc3c(c2)[C@@]2(COC(N)=N2)c2cc(C4=CCOCC4)cnc2O3)cnc1F` [Example 467, (5S)-3-(3,6-dihydro-2H-pyran-4-yl)-7-(6-fluoro-5-methyl-3-pyridinyl)spiro[chromeno[2,3-b]pyridine-5,4′-[1,3]oxazol]-2′-amine], the pIC50 in assay [1] (setting [3]) was 7.29; in assay [2], 7.68.
`NC1=N[C@@]2(CO1)c1cc(OCc3cccnc3)ccc1Oc1ncc(-c3ccnc(F)c3)cc12` [Example 974, (5S)-3-(2-fluoro-4-pyridinyl)-7-(3-pyridinylmethoxy)spiro[chromeno[2,3-b]pyridine-5,4′-[1,3]oxazol]-2′-amine]: the pIC50 in assay [1] (HEK293, average IC50) is 5.56; in assay [2], 6.96.
For `NC1=N[C@@]2(CO1)c1cc(-c3ccc(F)cc3)ccc1Oc1cnc(-c3ccnc(F)c3)cc12` [Example 395, (5S)-7-(4-fluorophenyl)-3-(2-fluoro-4-pyridinyl)spiro[chromeno[2,3-c]pyridine-5,4′-[1,3]oxazol]-2′-amine], the pIC50 is 6.48 in assay [1] (setting [3]) and 7.63 in assay [2].
Regarding `CC1(C)CC(c2cnc3c(c2)[C@@]2(COC(N)=N2)c2c(ccc(-c4cccnc4F)c2F)O3)=CCO1` [Example 351, (5S)-3-(2,2-dimethyl-3,6-dihydro-2H-pyran-4-yl)-6-fluoro-7-(2-fluoro-3-pyridinyl)spiro[chromeno[2,3-b]pyridine-5,4′-[1,3]oxazol]-2′-amine], the pIC50 in assay [1] (HEK293, average IC50) is 6.07; in assay [2], 6.41.
The like results for `NC1=NC2(CO1)c1cc(-c3cccnc3F)ccc1Oc1nc(F)c(-c3cccnc3F)cc12` (stereo not shown) [Example 147, 2-fluoro-3,7-bis(2-fluoro-3-pyridinyl)spiro[chromeno[2,3-b]pyridine-5,4′-[1,3]oxazol]-2′-amine] were, in that order, 6.91 and 7.65.
The like results for `Cc1ccc(-c2ccc3c(c2)[C@@]2(COC(N)=N2)c2cc(-c4ccnc(F)c4)ncc2O3)c(F)n1` [Example 254, (5S)-7-(2-fluoro-6-methyl-3-pyridinyl)-3-(2-fluoro-4-pyridinyl)spiro[chromeno[2,3-c]pyridine-5,4′-[1,3]oxazol]-2′-amine] were, in that order, 5.97 and 7.26.
With `Cc1ccc(-c2cnc3c(c2)[C@]2(CSC(N)=N2)c2cc(C#CC4(C)COC4)ccc2O3)cn1` [Example 940, (5S)-7-((3-methyl-3-oxetanyl)ethynyl)-3-(6-methyl-3-pyridinyl)spiro[chromeno[2,3-b]pyridine-5,4′-[1,3]thiazol]-2′-amine], the figures for the pIC50 in assay [1] (setting [3]) and in assay [2] were 7.22 and 8.27, respectively.
The corresponding values for `Cc1cc(-c2cc(F)c3c(c2)[C@]2(COC(N)=N2)c2cc(OCC4(C)COC4)ccc2O3)ccn1` [Example 439, (4S)-4′-fluoro-7′-((3-methyl-3-oxetanyl)methoxy)-2′-(2-methyl-4-pyridinyl)spiro[1,3-oxazole-4,9′-xanthen]-2-amine] are 6.81 and 6.73.
With `COc1cncc(-c2ccc3c(c2)[C@@]2(COC(N)=N2)c2cc(C4=CCOCC4)ncc2O3)c1` [Example 144, (5S)-3-(3,6-dihydro-2H-pyran-4-yl)-7-(5-methoxy-3-pyridinyl)spiro[chromeno[2,3-c]pyridine-5,4′-[1,3]oxazol]-2′-amine], the pIC50 in assay [1] (HEK293, average IC50) was 8.06; in assay [2] it was 8.80.
For `CC1(C)C[C@@H](c2cnc3c(c2)[C@]2(COC(N)=N2)c2cc(-c4cncc(Cl)c4)ccc2O3)CCO1` [Example 466, (5S)-7-(5-chloro-3-pyridinyl)-3-((4S)-2,2-dimethyltetrahydro-2H-pyran-4-yl)spiro[chromeno[2,3-b]pyridine-5,4′-[1,3]oxazol]-2′-amine], the pIC50 is 8.25 in assay [1] (setting [3]) and 8.68 in assay [2].
On to `CC1(COc2cc3c(cc2F)Oc2ccc(-c4cccc(Cl)c4)cc2[C@@]32COC(N)=N2)COC1` [Example 310, (4S)-7′-(3-chlorophenyl)-3′-fluoro-2′-((3-methyl-3-oxetanyl)methoxy)spiro[1,3-oxazole-4,9′-xanthen]-2-amine], for which the pIC50 was 6.95 in assay [1] (HEK293, average IC50) and 8.49 in assay [2].
Take `Cn1cc(-c2cc(F)c3c(c2)[C@]2(COC(N)=N2)c2cc(OCC4(C)COC4)ccc2O3)cn1` [Example 444, (4S)-4′-fluoro-7′-((3-methyl-3-oxetanyl)methoxy)-2′-(1-methyl-1H-pyrazol-4-yl)spiro[1,3-oxazole-4,9′-xanthen]-2-amine]: the results for the pIC50 in assay [1] (setting [3]) and in assay [2] were 7.41 and 7.70, respectively.
The corresponding values for `COc1cc(F)c2c(c1)C1(COC(N)=N1)c1cc(Br)c(F)cc1O2` (stereo not shown) [Example 521, 2′-bromo-3′,5′-difluoro-7′-methoxyspiro[1,3-oxazole-4,9′-xanthen]-2-amine] are 5.00 and 5.14.
As for `CC#Cc1cncc(-c2ccc3c(c2)[C@@]2(COC(N)=N2)c2cc(-c4ccncc4)nc(OC)c2O3)c1` [Example 837, (5S)-1-methoxy-7-(5-(1-propyn-1-yl)-3-pyridinyl)-3-(4-pyridinyl)spiro[chromeno[2,3-c]pyridine-5,4′-[1,3]oxazol]-2′-amine], the pIC50 in assay [1] (HEK293, average IC50) was 8.05; in assay [2] it was 9.15.
The corresponding values for `COc1ccc(-c2cc(F)c3c(c2)[C@]2(COC(N)=N2)c2cc(-c4cncc(F)c4)ccc2O3)nn1` [Example 290, (4S)-4′-fluoro-7′-(5-fluoro-3-pyridinyl)-2′-(6-methoxy-3-pyridazinyl)spiro[1,3-oxazole-4,9′-xanthen]-2-amine] are 8.09 and 9.10.
`CC(C)(C)C#Cc1ccc2c(c1)[C@@]1(COC(N)=N1)c1cc(C3=CCOCC3)ncc1O2` [Example 161, (5S)-3-(3,6-dihydro-2H-pyran-4-yl)-7-(3,3-dimethyl-1-butyn-1-yl)spiro[chromeno[2,3-c]pyridine-5,4′-[1,3]oxazol]-2′-amine]: the pIC50 in assay [1] (HEK293, average IC50) is 6.96; in assay [2] it was 8.01.
On to `NC1=N[C@@]2(CO1)c1cc(-c3cccnc3F)ccc1Oc1c2cc(N2CC[C@@H](F)C2)nc1F` [Example 673, (5S)-1-fluoro-7-(2-fluoro-3-pyridinyl)-3-((3R)-3-fluoro-1-pyrrolidinyl)spiro[chromeno[2,3-c]pyridine-5,4′-[1,3]oxazol]-2′-amine], for which the pIC50 is 8.52 in assay [1] (setting [3]) and 9.52 in assay [2].
Take `COc1ncc(F)cc1-c1ccc2c(c1)[C@@]1(COC(N)=N1)c1cc(/C=C/C(C)(C)C)ncc1O2` [Example 407, (5S)-3-((1E)-3,3-dimethyl-1-buten-1-yl)-7-(5-fluoro-2-methoxy-3-pyridinyl)spiro[chromeno[2,3-c]pyridine-5,4′-[1,3]oxazol]-2′-amine]: the pIC50 in assay [1] (setting [3]) was 6.80; in assay [2], 8.28.
Regarding `CC1(C#Cc2cc3c(nc2F)Oc2ccc(-c4cccnc4F)cc2C32COC(N)=N2)COC1` (stereo not shown) [Example 149, 2-fluoro-7-(2-fluoro-3-pyridinyl)-3-((3-methyl-3-oxetanyl)ethynyl)spiro[chromeno[2,3-b]pyridine-5,4′-[1,3]oxazol]-2′-amine], the pIC50 in assay [1] (HEK293, average IC50) was 8.12; in assay [2], 9.10.
For `Cc1ccc(Oc2ccc3c(c2)[C@@]2(COC(N)=N2)c2cc(N4CCOCC4)cc(F)c2O3)nc1` [Example 1058, (4S)-4′-fluoro-7′-((5-methyl-2-pyridinyl)oxy)-2′-(4-morpholinyl)spiro[1,3-oxazole-4,9′-xanthen]-2-amine], the pIC50 in assay [1] (HEK293, average IC50) is 6.22; in assay [2], 7.29.
Consider `NC1=N[C@]2(CO1)c1cc(N3CC[C@@H](F)C3)cc(F)c1Oc1ccc(-c3cncnc3)c(F)c12` [Example 1052, (4R)-1′,5′-difluoro-7′-((3R)-3-fluoro-1-pyrrolidinyl)-2′-(5-pyrimidinyl)spiro[1,3-oxazole-4,9′-xanthen]-2-amine], for which the pIC50 was 7.17 in assay [1] (HEK293, average IC50) and 7.42 in assay [2].
As for `NC1=N[C@]2(CO1)c1cc(-c3cccnc3F)c(F)cc1Oc1c(F)cc(C3=CCCOC3)cc12` [Example 866, (4R)-7′-(5,6-dihydro-2H-pyran-3-yl)-3′,5′-difluoro-2′-(2-fluoro-3-pyridinyl)spiro[1,3-oxazole-4,9′-xanthen]-2-amine], the pIC50 was 5.76 in assay [1] (setting [3]) and 7.21 in assay [2].
Consider `COC(C)(C)CNc1cc2c(cn1)Oc1ccc(-c3cccnc3F)cc1[C@@]21COC(N)=N1` [Example 418, (5S)-7-(2-fluoro-3-pyridinyl)-N~3~-(2-methoxy-2-methylpropyl)spiro[chromeno[2,3-c]pyridine-5,4′-[1,3]oxazole]-2′,3-diamine], for which the pIC50 in assay [1] (setting [3]) is 7.85; in assay [2] it was 8.52.
The corresponding values for `CC1(C)C[C@H](c2cnc3c(c2)[C@]2(COC(N)=N2)c2cc(-c4cccnc4F)ccc2O3)CCO1` [Example 453, (5S)-3-((4R)-2,2-dimethyltetrahydro-2H-pyran-4-yl)-7-(2-fluoro-3-pyridinyl)spiro[chromeno[2,3-b]pyridine-5,4′-[1,3]oxazol]-2′-amine] are 7.91 and 8.62.
